Results: patent US20180209956A1, “HTS Assay for Identifying Small Molecule Inhibitors of RAD52 and Uses of Identified Small Molecule Inhibitors for Treatment and Prevention of BRCA-Deficient Malignancies” (University of Iowa Research Foundation, priority 2015, published 2018)

Key:
RAD52 [1] = molecular target: T1, RAD52 (Homo sapiens, UniProt P43351); settings: cited from earlier work
T1 sequence (P43351 1-418): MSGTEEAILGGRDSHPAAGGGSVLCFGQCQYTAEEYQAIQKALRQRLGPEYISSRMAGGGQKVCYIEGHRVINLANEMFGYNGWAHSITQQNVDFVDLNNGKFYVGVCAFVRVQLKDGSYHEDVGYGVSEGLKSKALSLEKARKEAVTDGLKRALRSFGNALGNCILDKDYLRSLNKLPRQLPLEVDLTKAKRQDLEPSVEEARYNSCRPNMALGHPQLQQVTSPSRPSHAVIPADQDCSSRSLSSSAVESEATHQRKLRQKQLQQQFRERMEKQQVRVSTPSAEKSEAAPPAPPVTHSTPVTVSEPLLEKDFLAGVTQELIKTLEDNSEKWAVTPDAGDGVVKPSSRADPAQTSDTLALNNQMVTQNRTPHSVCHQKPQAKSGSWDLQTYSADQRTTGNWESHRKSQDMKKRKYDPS

RAD52 [2] = molecular target: T1, RAD52; assay: WaterLOGSY NMR analysis of compound binding to RAD52; parameters: made in house; settings: 20 or 40 μM compound, 3.3 μM RAD52
Method: In WaterLOGSY spectrum, if a compound binds to a protein, the compound will receive negative nuclear Overhauser effects (NOEs) due to the slow tumbling of the protein-compound complex, leading to a positive WaterLOGSY peak.
(§1) WaterLOGSY NMR analysis of the compound binding to RAD52 and RPA proteins: Compound binding to RAD52 and RPA proteins was analyzed using water-ligand observation with gradient spectroscopy (WaterLOGSY) NMR experiments (Dalvit et al., 2001, Dalvit et al., 2000). The WaterLOGSY spectra of compounds in the presence of RAD52 or RPA were acquired using a water NOE mixing time of 1 s and a T2 relaxation filter of 50 ms just before data acquisition to suppress the broad signals derived from protein. The protein buffer used in the experiments contains 10 mM Tris-d11, 75 mM KCl, 0.25 mM EDTA, pH 7.5, and 10% D20. All NMR data were acquired on a Bruker Avance II 800 MHz NMR spectrometer equipped with a sensitive cryoprobe and recorded at 25° C. The ^1H chemical shifts were referenced to 2,2-dimethyl-2-silapentane-5-sulfonate (DSS). NMR spectra were processed using NMR Pipe (Delaglio et al., 1995) and analysed using NMR View (Johnson and Blevins, 1994).

[3] = molecular target: T2, RAD52-RPA-Cy3-dT30-Cy5 complex (Homo sapiens, UniProt P43351); assay: FRET-based RAD52 binding/wrapping of RPA-coated ssDNA
T2 construct: made in house
T2 sequence (P27694 whole entry partner, one chain of several): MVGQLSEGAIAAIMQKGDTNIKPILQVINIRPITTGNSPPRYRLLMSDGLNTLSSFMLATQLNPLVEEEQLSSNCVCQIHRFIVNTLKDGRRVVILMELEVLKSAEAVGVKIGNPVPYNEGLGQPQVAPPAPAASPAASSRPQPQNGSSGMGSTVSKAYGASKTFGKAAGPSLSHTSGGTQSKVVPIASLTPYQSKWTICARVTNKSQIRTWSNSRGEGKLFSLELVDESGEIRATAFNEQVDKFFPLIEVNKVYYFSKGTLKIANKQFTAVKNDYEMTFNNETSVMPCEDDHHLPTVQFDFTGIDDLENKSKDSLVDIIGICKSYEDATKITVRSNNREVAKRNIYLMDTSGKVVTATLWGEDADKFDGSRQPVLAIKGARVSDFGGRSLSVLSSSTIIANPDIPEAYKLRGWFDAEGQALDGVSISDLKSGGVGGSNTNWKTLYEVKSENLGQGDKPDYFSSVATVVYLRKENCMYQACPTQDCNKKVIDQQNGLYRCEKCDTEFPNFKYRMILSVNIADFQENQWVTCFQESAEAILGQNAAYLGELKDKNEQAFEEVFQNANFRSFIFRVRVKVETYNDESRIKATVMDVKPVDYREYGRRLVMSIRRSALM
T2 sequence (P15927 whole entry partner, one chain of several): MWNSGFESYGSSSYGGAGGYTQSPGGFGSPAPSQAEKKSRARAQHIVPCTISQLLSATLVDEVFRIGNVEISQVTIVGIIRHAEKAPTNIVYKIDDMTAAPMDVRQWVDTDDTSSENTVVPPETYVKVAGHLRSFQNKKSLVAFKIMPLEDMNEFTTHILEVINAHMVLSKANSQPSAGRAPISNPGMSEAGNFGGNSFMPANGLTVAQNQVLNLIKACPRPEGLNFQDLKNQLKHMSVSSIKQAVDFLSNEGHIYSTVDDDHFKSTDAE
T2 sequence (P35244 whole entry partner, one chain of several): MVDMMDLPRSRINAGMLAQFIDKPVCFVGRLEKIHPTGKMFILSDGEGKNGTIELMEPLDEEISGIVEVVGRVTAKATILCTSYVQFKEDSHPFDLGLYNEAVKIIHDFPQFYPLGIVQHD
Method: RPA binds ssDNA with high affinity and extends the ssDNA to its contour length.
(§2) where FRET0 is the initial FRET value of RAD52-ssDNA complex in the absence of the compound and FRETmin is the FRET value at complete inhibition. FRET values were calculated as an average of three or more independent annealing reactions plotted against the concentration of the compound. Inhibition of the RAD52-dsDNA interaction was assayed in a similar experiment, except the stoichiometric complexes containing 1 nM molecules of Cy3-Oligo28-Cy5 duplex DNA and 10 nM RAD52. […] In all experiments, the FRET values for each data point were corrected for the effects of the compounds on the respective substrate in the absence of RAD52.

RPA-ssDNA interaction = molecular target: T3, RPA-ssDNA interaction (Homo sapiens, UniProt P15927+P27694+P35244); assay: FRET titration of the RPA-Cy3-dT30-Cy5 complex; format: binding
T3 construct: made in house
T3 sequence (P27694 whole entry): as the sequence (P27694 whole entry partner, one chain of several) above
T3 sequence (P15927 whole entry): as the sequence (P15927 whole entry partner, one chain of several) above
T3 sequence (P35244 whole entry): as the sequence (P35244 whole entry partner, one chain of several) above
Description: Compounds ‘1’ and ‘6’ inhibit RAD52 binding to and annealing of the RPA-coated ssDNA: In the cell, ssDNA is typically found in complex with Replication protein A (RPA), which is the major eukaryotic ssDNA-binding protein essential for DNA replication, repair and recombination (Wold, 1997, Oakley and Patrick, 2010, Chen and Wold, 2014). The RPA-ssDNA complex is a natural substrate for the RDA52-mediated strand annealing. To confirm that compounds ‘1’ and ‘6’ can inhibit the RAD52 binding to and annealing of the RPA-coated ssDNA we added stoichiometric amounts of RPA (1 RPA per 30 nucleotides of ssDNA) to the FRET-based ssDNA binding/wrapping and ssDNA annealing experiments described above. RPA binds ssDNA with high affinity and extends the ssDNA to its contour length. In our assays such an extension manifests as a distinct FRET state of ˜0.3, which is readily distinguished from a FRET state of ˜0.48 of free Cy3-dT30-Cy5 ssDNA, as well as ˜0.63 FRET of the stoichiometric ssDNA-RPA-RAD52 complex (see FIG. 2 Supplement 1 and (Grimme and Spies, 2011) for details). […] Both, however, inhibited the RAD52 binding to and wrapping of RPA-coated ssDNA with IC50 values identical to those determined without RPA (FIG. 2e and FIG. 3e).
as §2

RPA = molecular target: T4, RPA (Homo sapiens, UniProt P15927+P27694+P35244); assay: WaterLOGSY NMR analysis of compound binding to RPA; settings: 20 or 40 μM compound, 3.3 μM RPA
T4 construct: made in house
T4 sequence (P27694 whole entry): as the sequence (P27694 whole entry partner, one chain of several) above
T4 sequence (P15927 whole entry): as the sequence (P15927 whole entry partner, one chain of several) above
T4 sequence (P35244 whole entry): as the sequence (P35244 whole entry partner, one chain of several) above
Description: Compounds ‘1’ and ‘6’ physically interact with RAD52: To confirm that the selected compounds bind RAD52, we employed water-ligand observation with gradient spectroscopy (WaterLOGSY), an NMR technique, which is based on transfer of magnetization from bulk water to the protein-bound compound of interest (Dalvit et al., 2001, Dalvit et al., 2000). In WaterLOGSY spectrum, if a compound binds to a protein, the compound will receive negative nuclear Overhauser effects (NOEs) due to the slow tumbling of the protein-compound complex, leading to a positive WaterLOGSY peak.
as §1

RAD52-dsDNA interaction = molecular target: T5, RAD52-dsDNA interaction (Homo sapiens, UniProt P43351); assay: FRET-based RAD52-dsDNA binding assay; settings: 1 nM dsDNA, 10 nM RAD52
T5 construct: made in house
T5 sequence (P43351 1-418): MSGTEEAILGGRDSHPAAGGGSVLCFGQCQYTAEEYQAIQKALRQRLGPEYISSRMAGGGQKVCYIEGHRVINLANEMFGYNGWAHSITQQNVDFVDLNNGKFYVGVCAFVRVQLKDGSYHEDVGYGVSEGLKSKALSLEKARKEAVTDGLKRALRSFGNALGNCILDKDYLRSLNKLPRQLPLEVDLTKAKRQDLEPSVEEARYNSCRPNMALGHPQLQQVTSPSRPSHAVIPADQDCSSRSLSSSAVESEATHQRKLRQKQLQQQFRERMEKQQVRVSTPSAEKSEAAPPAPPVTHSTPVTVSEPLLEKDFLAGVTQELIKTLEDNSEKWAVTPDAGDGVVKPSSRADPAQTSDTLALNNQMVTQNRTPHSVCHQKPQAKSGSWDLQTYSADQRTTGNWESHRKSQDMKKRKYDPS
Description: These assays utilize two complementary single stranded 28-nucleotide-long substrates, which contain either Cy3 (T-28) or Cy5 (P-28) incorporated into the middle of the respective DNA strand. When the substrates are annealed by RAD52, the Cy3 and Cy5 dyes are separated by 3 base pairs and yield a high FRET signal (FIG. 2 Supplement 2). […] The annealing reactions were initiated by mixing two half reactions and observing the change in FRET over time in the presence of varying concentrations of small molecules. An increasing FRET value over time indicates formation of the dsDNA duplex which brings the two dyes in close proximity (FIG. 2 Supplement 2). Fitting the annealing data to a double exponential allowed us to calculate and compare the final extent of annealing at varying concentrations of each compound compared to RAD52 alone. We plotted the final extent of annealing vs the concentration of the compound and calculated an IC50 of annealing inhibition.
where FRET0 is the initial FRET value of RAD52-ssDNA complex in the absence of the compound and FRETmin is the FRET value at complete inhibition. FRET values were calculated as an average of three or more independent annealing reactions plotted against the concentration of the compound. […]

RAD52-ssDNA interaction = molecular target: T6, RAD52-ssDNA interaction (Homo sapiens, UniProt P43351); assay: FRET-based ssDNA binding and wrapping assay (RAD52-Cy3-dT30-Cy5 complex); settings: FRET-based competition assay; read-out: IC50, RAD52-ssDNA interaction
T6 construct: made in house
T6 sequence (P43351 1-418): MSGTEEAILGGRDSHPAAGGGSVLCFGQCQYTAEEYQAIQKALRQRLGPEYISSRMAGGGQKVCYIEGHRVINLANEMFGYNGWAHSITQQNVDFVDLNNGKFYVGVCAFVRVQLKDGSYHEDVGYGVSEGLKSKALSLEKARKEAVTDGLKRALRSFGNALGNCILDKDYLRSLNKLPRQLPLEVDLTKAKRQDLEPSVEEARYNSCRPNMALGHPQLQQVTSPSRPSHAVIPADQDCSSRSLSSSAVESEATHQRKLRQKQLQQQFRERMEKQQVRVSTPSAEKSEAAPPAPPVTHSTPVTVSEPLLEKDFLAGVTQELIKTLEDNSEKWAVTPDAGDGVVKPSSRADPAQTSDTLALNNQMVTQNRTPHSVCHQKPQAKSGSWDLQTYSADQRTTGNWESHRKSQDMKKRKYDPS
Method: We titrated increasing amounts of each compound into a cuvette containing preformed stoichiometric RAD52-Cy3-dT30-Cy5 complexes (1 nM Cy3-dT30-Cy5 and 8 nM RAD52). […] At each concentration of the compound, the FRET signal was adjusted for the change in Cy3 and Cy5 fluorescence in the presence of the compound, but in the absence of protein.
(§3) FRET-based DNA binding and annealing assays: FRET-based ssDNA binding, dsDNA binding, and annealing assays were carried out as previously described (Grimme et al., 2010, Grimme and Spies, 2011) using Cary Eclipse spectrofluorimeter (Varian) at 25° C. in buffer containing 30 mM Tris-Acetate pH7.5, 1 mM DTT, and 0.1 mg/mL BSA. Cy3 dye was excited at 530 nm and its emission was monitored at 565 nm. Emission of Cy5 acceptor fluorophore excited through the energy transfer from Cy3 donor is monitored at 660 nm simultaneously with emission of Cy3 dye. Both the excitation and the emission slit widths were set to 10 nm.
All experiments were performed in triplicates, and the data are shown as averages and standard deviations for three independent measurements. To remove possible experimental artifacts associated with chromogenic or fluorogenic compounds, as well as with the compounds that may quench or enhance Cy3 or Cy5 fluorescence, we also performed control titrations whereby we titrated each compound into 1 nM Cy3-dT30-Cy5 in the absence of RAD52. For each compound concentration we subtracted the difference in the FRET signal in the presence and absence of the compound from the respective FRET signal in the presence of RAD52. The FRET signal corrected for the compound fluorescence was calculated using the equation: […]
as previously described (Grimme et al., 2010, Grimme and Spies, 2011) and plotted as a function of compound concentration and fitted to the following inhibition model”
as §2

RAD52 [4] = molecular target: T7, RAD52 (Homo sapiens, UniProt P43351 P43351:1-418); assay: method FRET; stoichiometric wrapped complex at about 8 nM RAD52 with 1 nM ssDNA; 30 mM Tris-acetate pH 7.5, 1 mM DTT, 0.1 mg/mL BSA, 25 C; also bound when ssDNA is RPA-coated (FRET about 0.63); settings: tags: 6xHis; chain copies: heptameric ring per 30-mer ssDNA (stated); label: Cy3 and Cy5 at the ends
T7 sequence: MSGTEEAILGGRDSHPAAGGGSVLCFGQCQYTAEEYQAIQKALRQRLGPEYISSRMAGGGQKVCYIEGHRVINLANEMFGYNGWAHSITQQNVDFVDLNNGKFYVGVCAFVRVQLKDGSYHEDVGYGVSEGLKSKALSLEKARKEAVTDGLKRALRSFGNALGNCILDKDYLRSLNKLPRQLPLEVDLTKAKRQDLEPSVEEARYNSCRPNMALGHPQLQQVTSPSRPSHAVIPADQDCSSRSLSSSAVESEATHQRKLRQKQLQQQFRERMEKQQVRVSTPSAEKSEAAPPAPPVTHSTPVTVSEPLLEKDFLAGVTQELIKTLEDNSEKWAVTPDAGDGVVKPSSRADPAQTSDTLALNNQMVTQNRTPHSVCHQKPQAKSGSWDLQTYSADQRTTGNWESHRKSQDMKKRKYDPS
Method: as §3

[5] = molecular target: RPA (RPA70/RPA35/RPA14 heterotrimer) (UniProt P27694;P15927;P35244 P27694:1-616,P15927:1-270,P35244:1-121); assay: FRET; 1:1 stoichiometric complex, FRET about 0.3 vs about 0.48 for free ssDNA; 30 mM Tris-acetate pH 7.5, 25 C; settings: tags: untagged; label: Cy3 and Cy5 at the ends
Chain of RPA (RPA70/RPA35/RPA14 heterotrimer) (P27694 whole entry, chain 1 of 3): as the sequence (P27694 whole entry partner, one chain of several) above
Chain of RPA (RPA70/RPA35/RPA14 heterotrimer) (P15927 whole entry, chain 2 of 3): as the sequence (P15927 whole entry partner, one chain of several) above
Chain of RPA (RPA70/RPA35/RPA14 heterotrimer) (P35244 whole entry, chain 3 of 3): as the sequence (P35244 whole entry partner, one chain of several) above

RAD52 [6] = molecular target: T7, RAD52; assay: competition; 10 nM poly(dT)-100 fully inhibits wrapped RAD52-Cy3-dT30-Cy5 complex (100 nM RAD52, 15 nM dT30); 20 mM Hepes pH 7.5, 1 mM DTT, 0.1 mg/mL BSA; settings: tags: 6xHis; chain copies: heptameric ring per 30-mer ssDNA (stated)

For `NC(Cc1cc(O)c(O)cc1O)C(=O)O` (racemic) [6-hydroxy-DL-dopa], the “Effect on supramolecular assembly of RAD52” value (RAD52 [1]) is listed as “disrupts supramolecular assembly of the RAD52 protein”.

For `O=C(O[C@@H]1O[C@@H]2COC(=O)c3cc(O)c(O)c(O)c3-c3c(cc(O)c(O)c3O)C(=O)O[C@H]([C@H]1O)[C@@H]2O)c1cc(O)c(O)c(O)c1` [NP-004255, corilagin], the “Binding to RAD52 by WaterLOGSY” value (RAD52 [2]) was “physically interacts with RAD52 protein”, the IC50 [3] was 500 ± 100 nM and the “Effect on the RPA-ssDNA interaction” value (RPA-ssDNA interaction) was “did not affect the RPA-ssDNA complex”. The “Binding to RPA by WaterLOGSY” value (RPA) was “bound RPA”, the “Effect on the RAD52-dsDNA interaction” value (RAD52-dsDNA interaction) was “no effect” and the IC50 (RAD52-ssDNA interaction) was 1500 ± 200 nM.

B1: Cy3-dT30-Cy5 (ssDNA)
DNA: TTTTTTTTTTTTTTTTTTTTTTTTTTTTTT
B1: binds (RAD52 [4]); binds [5].

B2: Poly dT100 (ssDNA)
DNA: TTTTTTTTTTTTTTTTTTTTTTTTTTTTTTTTTTTTTTTTTTTTTTTTTTTTTTTTTTTTTTTTTTTTTTTTTTTTTTTTTTTTTTTTTTTTTTTTTTTT
modifications: [none]
B2: binds (RAD52 [6]).
